These results are taken from patent publication US8557796B2, “Substituted 1-oxa-2,8-diaza-spiro [4,5] dec-2-ene derivatives and related treatment methods” (Gruenenthal GmbH, priority 2001, dated 2013).

For the assay, the target named is T1, NA transporter (Rattus norvegicus, UniProt Q9WTR4).
T1 construct: synaptosomes from rat brain regions were freshly isolated; from tissue; host or cells: P2 synaptosome fraction from hypothalamus of male rat brain
Briefly: Noradrenalin uptake inhibition (NA-uptake) in synaptosomes. The assay is classed as biochemical. As to conditions: rat hypothalamus synaptosomes. The text has this:
Tests on Noradrenalin Uptake Inhibition (NA-Uptake Inhibition)
In order to be able to carry out these in vitro studies, synaptosomes from rat brain regions were freshly isolated.

T1 sequence (Q9WTR4 1-597): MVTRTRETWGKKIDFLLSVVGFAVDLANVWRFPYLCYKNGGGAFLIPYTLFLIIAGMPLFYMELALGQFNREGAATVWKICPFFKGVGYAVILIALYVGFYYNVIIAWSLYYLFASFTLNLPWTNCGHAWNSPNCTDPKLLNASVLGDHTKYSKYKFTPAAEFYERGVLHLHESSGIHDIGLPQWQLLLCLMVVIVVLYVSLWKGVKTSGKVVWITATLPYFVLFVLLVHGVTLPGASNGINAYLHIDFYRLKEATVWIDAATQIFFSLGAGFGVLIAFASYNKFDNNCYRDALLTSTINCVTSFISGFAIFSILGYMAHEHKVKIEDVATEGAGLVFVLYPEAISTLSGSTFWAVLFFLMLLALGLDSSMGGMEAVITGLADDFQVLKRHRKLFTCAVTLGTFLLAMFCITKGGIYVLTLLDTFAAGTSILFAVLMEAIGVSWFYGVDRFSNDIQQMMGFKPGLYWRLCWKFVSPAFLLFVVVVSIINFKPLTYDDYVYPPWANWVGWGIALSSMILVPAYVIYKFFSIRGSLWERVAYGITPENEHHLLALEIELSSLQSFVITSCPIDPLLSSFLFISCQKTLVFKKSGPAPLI

In turn, `O=C(NCc1ccccc1)C1=NOC2(CCN(C(=O)c3cccnc3Oc3ccccc3)CC2)C1` [Example 203, 8-(2-phenoxy-pyridine-3-carbonyl)-1-oxa-2,8-diaza-spiro[4,5]dec-2-ene-3-carboxylic acid benzylamide] gave an inhibition at 10 µM of 58%. On to `Cc1oc(C(C)(C)C)cc1C(=O)N1CCC2(CC1)CC(C(=O)NC1CCCC1)=NO2` [Example 126, 8-(5-tert-butyl-2-methyl-furan-3-carbonyl)-1-oxa-2,8-diaza-spiro[4,5]dec-2-ene-3-carboxylic acid cyclopentylamide], for which the inhibition at 10 µM is 67%. `COc1ccc(S(=O)(=O)N2CCC3(CC2)CC(C(=O)NC2CCCC2OCc2ccccc2)=NO3)cc1` (stereo not shown) [Example 121, 8-(4-methoxy-benzenesulphonyl)-1-oxa-2,8-diaza-spiro[4,5]dec-2-ene-3-carboxylic acid (2-benzyloxy-cyclopentyl)-amide]: under “10 µM”, the “NA-uptake, 10 μM, % inhibition” value was 55%.

Regarding `CC(C)CNC(=O)C1=NOC2(CCN(C(=O)c3ccc(F)cc3)CC2)C1` [Example 137, 8-(4-fluoro-benzoyl)-1-oxa-2,8-diaza-spiro[4,5]dec-2-ene-3-carboxylic acid isobutyl-amide], the inhibition at 10 µM was 49%. Molecule `Cc1ccc(C(C)NC(=O)C2=NOC3(CCN(S(=O)(=O)c4ccc(C)cc4)CC3)C2)cc1` (stereo not shown) [Example 45, 8-(toluene-4-sulphonyl)-1-oxa-2,8-diaza-spiro[4,5]dec-2-ene-3-carboxylic acid (1-p-tolyl-ethyl)-amide] displayed an inhibition at 10 µM of 59%. The same measure, in the same setting: then `O=C(NCc1ccccc1)C1=NOC2(CCN(C(=O)c3ccncc3)CC2)C1` [Example 102, 8-(pyridine-4-carbonyl)-1-oxa-2,8-diaza-spiro[4,5]dec-2-ene-3-carboxylic acid benzylamide], with 48%. The same measure, in the same setting: then `C=C(C)CN(CC)C(=O)C1=NOC2(CCN(S(=O)(=O)c3ccc(OC(F)(F)F)cc3)CC2)C1` [Example 103, 8-(4-trifluoromethoxy-benzenesulphonyl)-1-oxa-2,8-diaza-spiro[4,5]dec-2-ene-3carboxylic acid ethyl-(2-methyl-allyl)-amide], with 47%. `O=C(NC1CCCC1)C1=NOC2(CCN(C(=O)c3ccccc3COC(=O)c3ccccc3)CC2)C1` [Example 188]: the “NA-uptake, 10 μM, % inhibition” value was determined as 49%. In turn, `O=C(NCc1cccs1)C1=NOC2(CCN(S(=O)(=O)c3ccc([N+](=O)[O-])cc3)CC2)C1` [Example 38, 8-(4-nitro-benzenesulphonyl)-1-oxa-2,8-diaza-spiro[4,5]dec-2-ene-3-carboxylic acid (thiophen-2-ylmethyl)-amide] showed an inhibition at 10 µM of 44%. On the same count and under the same terms, in the case of `O=C(NCc1cccs1)C1=NOC2(CCN(C(=O)c3ccc(F)c(Cl)c3)CC2)C1` [Example 184, 8-(3-chloro-4-fluorobenzoyl)-1-oxa-2,8-diaza-spiro[4,5]dec-2-ene-3-carboxylic acid (thiophen-2-ylmethyl)-amide] it was 62%; in that of `O=C(NCc1cccs1)C1=NOC2(CCN(C(=O)c3cccc(Cl)c3F)CC2)C1` [Example 146, 8-(3-chloro-2-fluorobenzoyl)-1-oxa-2,8-diaza-spiro[4,5]dec-2-ene-3-carboxylic acid (thiophen-2-ylmethyl)-amide], 61%. The same measure, in the same setting: then `O=C(NCc1ccccc1)C1=NOC2(CCN(C(=O)COc3cccc(Cl)c3)CC2)C1` [Example 166, 8-[2-(3-chloro-phenoxy)-acetyl]-1-oxa-2,8-diaza-spiro[4,5]dec-2-ene-3-carboxylic acid benzylamide], with 53%; and `COc1ccc(S(=O)(=O)N2CCC3(CC2)CC(C(=O)NC2CCCC2OCc2ccccc2)=NO3)cc1` (stereo not shown) [Example 169, 8-(4-methoxy-benzenesulphonyl)-1-oxa-2,8-diaza-spiro[4,5]dec-2-ene-3-carboxylic acid (2-benzyloxy-cyclopentyl)-amide], with 64%. Same read-out and setting: in the case of `O=C(NCC1CC1)C1=NOC2(CCN(C(=O)c3ccc(OC(F)(F)F)cc3)CC2)C1` [Example 117, 8-(4-trifluoromethoxy-benzoyl)-1-oxa-2,8-diaza-spiro[4,5]dec-2-ene-3-carboxylic acid cyclopropylmethyl-amide] it was 46%; in that of `CN(C)S(=O)(=O)N1CCC2(CC1)CC(C(=O)NC(Cc1ccccc1)C(=O)OC(C)(C)C)=NO2` (stereo not shown) [Example 139, 2-[(8-dimethylsulphamoyl-1-oxa-2,8-diaza-spiro[4,5]dec-2-ene-3-carbonyl)-amino]-3-phenyl-propionic acid tert-butyl ester], 51%. Regarding `COc1cccc(CCNC(=O)C2=NOC3(CCN(S(=O)(=O)c4ccc(F)cc4)CC3)C2)c1` [Example 124, 8-(4-fluoro-benzenesulphonyl)-1-oxa-2,8-diaza-spiro[4,5]dec-2-ene-3-carboxylic acid [2-(3-methoxy-phenyl)-ethyl]-amide], 10 µM produced 49% inhibition. The same measure, in the same setting: in the case of `CCSc1ncccc1C(=O)N1CCC2(CC1)CC(C(=O)NCc1ccccc1)=NO2` [Example 115, 8-(2-ethylsulphanyl-pyridine-3-carbonyl)-1-oxa-2,8-diaza-spiro[4,5]dec-2-ene-3-carboxylic acid benzylamide] it was 55%; in that of `Cc1ccc(S(=O)(=O)N2CCC3(CC2)CC(C(=O)N(CCc2ccccc2)Cc2ccccc2)=NO3)cc1` [Example 18, 8-(toluene-4-sulphonyl)-1-oxa-2,8-diaza-spiro[4,5]dec-2-ene-3-carboxylic acid benzyl-phenethyl-amide], 64%.

As to `O=C(C1=NOC2(CCN(S(=O)(=O)Cc3ccccc3)CC2)C1)N1CCN(c2ccccn2)CC1` [Example 134, (8-phenylmethanesulphonyl-1-oxa-2,8-diaza-spiro[4,5]dec-2-en-3-yl)-(4-pyridin-2-yl-piperazin-1-yl)-methanone], 10 µM produced 51% inhibition. Still for that read-out and setting: in the case of `O=C(NCC(c1ccccc1)c1ccccc1)C1=NOC2(CCN(S(=O)(=O)c3ccc(Cl)s3)CC2)C1` [Example 79, 8-(5-chloro-thiophene-2-sulphonyl)-1-oxa-2,8-diaza-spiro[4,5]dec-2-ene-3-carboxylic acid (2,2-diphenyl-ethyl)-amide] it was 58%; in that of `O=C(NCC1COc2ccccc2O1)C1=NOC2(CCN(S(=O)(=O)c3ccc(Cl)s3)CC2)C1` (stereo not shown) [Example 194, 8-(5-chloro-thiophene-2-sulphonyl)-1-oxa-2,8-diaza-spiro[4,5]dec-2-ene-3-carboxylic acid (2,3-dihydro-benzo[1,4]dioxin-2-ylmethyl)-amide], 65%; in that of `CC(NC(=O)C1=NOC2(CCN(S(=O)(=O)c3ccc(Cl)s3)CC2)C1)c1cccc2c1OCCO2` (stereo not shown) [Example 140, 8-(5-chloro-thiophene-2-sulphonyl)-1-oxa-2,8-diaza-spiro[4,5]dec-2-ene-3-carboxylic acid [1-(2,3-dihydro-benzo[1,4]dioxin-5-yl)-ethyl]-amide], 83%. The same measure, in the same setting: in the case of `O=C(NCc1ccccc1)C1=NOC2(CCN(S(=O)(=O)c3cccc(Cl)c3)CC2)C1` [Example 210, 8-(3-chloro-benzenesulphonyl)-1-oxa-2,8-diaza-spiro[4,5]dec-2-ene-3-carboxylic acid benzylamide] it was 42%.

For the molecule `CN(C)S(=O)(=O)N1CCC2(CC1)CC(C(=O)N1CCN(CCCc3ccccc3)CC1)=NO2` [Example 80, 3-[4-(3-phenyl-propyl)-piperazine-1-carbonyl]-1-oxa-2,8-diaza-spiro[4,5]dec-2-ene-8-sulphonic acid dimethylamide], the inhibition at 10 µM is 60%.

For the molecule `Cc1onc(-c2c(Cl)cccc2Cl)c1C(=O)N1CCC2(CC1)CC(C(=O)NCc1cccs1)=NO2` [Example 197, 8-[3-(2,6-dichloro-phenyl)-5-methyl-isoxazole-4-carbonyl]-1-oxa-2,8-diaza-spiro[4,5]dec-2-ene-3-carboxylic acid (thiophen-2-ylmethyl)-amide], at 10 µM the inhibition was 41%. As to `O=C(C1=NOC2(CCN(S(=O)(=O)c3cccc(C(F)(F)F)c3)CC2)C1)N1CCC(Cc2ccccc2)CC1` [Example 211, (4-benzyl-piperidin-l-yl)-[8-(3-trifluoromethyl-benzene-sulphonyl)-1-oxa-2,8-diaza-spiro[4,5]dec-2-en-3-yl]-methanone], the “NA-uptake, 10 μM, % inhibition” value is 49%. In turn, `O=C(NCCCn1ccnc1)C1=NOC2(CCN(S(=O)(=O)c3ccc(F)cc3)CC2)C1` [Example 142, 8-(4-fluoro-benzenesulphonyl)-1-oxa-2,8-diaza-spiro[4,5]dec-2-ene-3-carboxylic acid (3-imidazol-1-yl-propyl)-amide] yielded an inhibition at 10 µM of 49%.

The molecule `CC(NC(=O)C1=NOC2(CCN(S(=O)(=O)c3ccc(F)cc3)CC2)C1)c1ccc([N+](=O)[O-])cc1` (stereo not shown) [Example 213, 8-(4-fluoro-benzenesulphonyl)-1-oxa-2,8-diaza-spiro[4,5]dec-2-ene-3-carboxylic acid [1-(4-nitro-phenyl)-ethyl]-amide] displayed an inhibition at 10 µM of 46%. With `O=C(NCc1ccccc1)C1=NOC2(CCN(C(=O)c3ccc(F)c(Cl)c3)CC2)C1` [Example 205, 8-(3-chloro-4-fluorobenzoyl)-1-oxa-2,8-diaza-spiro[4,5]dec-2-ene-3-carboxylic acid benzylamide], the inhibition at 10 µM amounted to 46%. Same read-out and setting: in the case of `O=C(NC1CCCC1OCc1ccccc1)C1=NOC2(CCN(S(=O)(=O)c3cccc(C(F)(F)F)c3)CC2)C1` (stereo not shown) [Example 201, 8-(3-trifluoromethyl-benzenesulphonyl)-1-oxa-2,8-diaza-spiro[4,5]dec-2-ene-3-carboxylic acid (2-benzyloxy-cyclopentyl)-amide] it was 58%.

`CCOC(=O)C1CCCCN1C(=O)C1=NOC2(CCN(C(=O)c3ccc(C(C)(C)C)cc3)CC2)C1` (stereo not shown) [Example 195, 1-[8-(4-tert-butyl-benzoyl)-1-oxa-2,8-diaza-spiro[4,5]dec-2-ene-3-carbonyl]-piperidine-2-carboxylic acid ethyl ester] showed an inhibition at 10 µM of 41%.

One may read the inhibition as the relative decrease from the control value, in per cent. A higher inhibition goes with a strong effect.
